From PMC10060354, “Discovery of a small molecule ligand of FRS2 that inhibits invasion and tumor growth” (Cellular Oncology, 2022) come the findings set out here.

pEC50: −log10 of the molar value. Like-named read-outs stand apart in the source and are kept apart here.

The nature of data set [1]: CaCo-2 permeability (bi-directional). The conditions noted are these: human. In outline: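 Caco-2 monolayers (passage 40–60) cultured 20 days on Transwells, equilibrated 40 min in HBSS; compound dosed apically (A-B) or basolaterally (B-A) with 1% v/v DMSO and lucifer yellow integrity marker, in duplicate. LC–MS/MS quantification; Papp from permeation rate, C0 and monolayer area; efflux ratio = Papp(B-A)/Papp(A-B).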

Data set [2] can be described thus: Semi-thermodynamic solubility. It is filed as physicochemical. The conditions noted are these: for solubility / solubility thermodynamic: PBS, aqueous buffer, thermodynamic from solid; for solubility: Room Temp, Overnight, LC-MSMS; for solubility thermodynamic: overnight; for solubility thermodynamic / Solubility (class in words): summary sheet. In outline:
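Compound solution agitated overnight at ambient temperature, then centrifuged twice (30 min, 3000 rpm, RT). Supernatant diluted in 50% methanol/water with internal standard and quantified by LC–MS/MS. Solubility derived from a linear or quadratic fit of the standard curve.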

Data set [3] deals with HepG2 human hepatocellular carcinoma cells. As to the kind of experiment: Cell viability (cytotoxicity, MTT) using HepG2. The settings on record: for MEC: 72h, 3 replicas, NR = No response (Summary sheet). In kind it is cell-based. An outline of the steps: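 Compounds were tested at 8 concentrations in triplicate on HepG2 cells plated 24 h beforehand, with 72 h exposure in 1% DMSO medium. MTT was loaded 1 h before the end, solubilized in DMSO and read at 570 nm. Minimum effective concentration is the lowest concentration exceeding the significance level, given dose-response or two consecutive points above it.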

For another data set, the system named is DAOY cells. Nature of the data set: Spheroid invasion assay (SIA), bFGF-induced collagen I invasion. The settings on record: for functional activity in SIA (result in words): DAOY, bFGF-induced, 1, 5 and 10 µM. It is filed as cell-based, human. An outline of the steps: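 Spheroids formed over 24–72 h were embedded in collagen I (final 1.75 mg/ml) and stimulated with bFGF (100 ng/ml unless stated), HGF 30 ng/ml or EGF 20 ng/ml with compound in DMSO. Invasion distance was quantified 24–48 h after embedding.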

Data set [4] in a line: Microsomal metabolic stability. In kind it is in vitro ADME. The settings on record: human, pooled liver microsomes; for half-life at 1 µM: pH 7.4, liver microsomes, read-out: t1/2; for microsomal CLint at 1 µM: pH 7.4, read-out: Metabolic stability - Intrinsic clearance (CI). An outline of the steps:
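Pooled liver microsomes were incubated with NADPH for 0, 5, 15, 30 and 45 min; the minus-NADPH control (0.1 M phosphate pH 7.4) ran 45 min only. Reactions were stopped in acetonitrile and analysed by LC–MS/MS. t1/2 = 0.693/k came from the ln peak-area-ratio versus time slope, and CLint (μl/min/mg protein) was derived from it.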
On the technique in general: Liver microsomes are vesicles of endoplasmic reticulum, rich in cytochrome P450 enzymes.

The mark [5] stands for this setting: Caco-2, Mean Papp B-A, Caco-2, summary sheet.
The mark [6] stands for this setting: Caco-2, pH 7.4, Mean % Recovery A2B, HBSS/HBSS, pH 7.4/7.4.
Where [7] appears, read: Caco-2, pH 7.4, Mean % Recovery B2A, HBSS/HBSS, pH 7.4/7.4.
Setting [8] is: Caco-2, pH 7.4, Mean Papp B2A, HBSS/HBSS, pH 7.4/7.4.
The mark [9] stands for this setting: Caco-2, pH 7.4, Papp B2A Replicate 1, HBSS/HBSS, pH 7.4/7.4.
Setting [10] is: Caco-2, pH 7.4, Papp B2A Replicate 2, HBSS/HBSS, pH 7.4/7.4.
The mark [11] stands for this setting: read-out: Solubility Replicate 1.
Setting [12] is: read-out: Solubility Replicate 3.
The mark [13] stands for this setting: read-out: Solubility Replicate 4.
The mark [14] stands for this setting: Caco-2, Mean Papp A-B, Caco-2, summary sheet.
Setting [15] is: Caco-2, pH 7.4, Mean Papp A2B, HBSS/HBSS, pH 7.4/7.4.
Where [16] appears, read: Caco-2, pH 7.4, Papp A2B Replicate 1, HBSS/HBSS, pH 7.4/7.4.
Setting [17] is: Caco-2, pH 7.4, Papp A2B Replicate 2, HBSS/HBSS, pH 7.4/7.4.
Setting [18] is: read-out: Solubility Replicate 2.

As usually defined, the Papp B→A is the apparent permeability from the basolateral to the apical side of a cell layer. A word on the solubility: it is the dissolved amount per volume that the medium holds. As a reminder, the thermodynamic solubility is the concentration in solution at equilibrium with solid. For `O=[N+]([O-])c1c(Cl)cc(O)c2c1C1C=CCC1C(c1ccc(Cl)cc1Cl)N2` (centres unmarked) [Compound 8], the Papp B→A at 120 min, 10 μM in data set [1] (setting [5]) came out at 7.05 ×10⁻⁶ cm/s; in data set [1] (setting [8]), 7.05 ×10⁻⁶ cm/s; in data set [1] (setting [9]), 7.14 ×10⁻⁶ cm/s; in data set [1] (setting [10]), 6.96 ×10⁻⁶ cm/s. The recovery at 120 min, 10 µM in data set [1] (setting [6]) stood at 32.1%; in data set [1] (setting [7]) it was 33.3%. The solubility in data set [2] (read-out: Mean Solubility), in data set [2] (setting [11]), in data set [2] (setting [12]) and in data set [2] (setting [13]) was above 100 µM each time. For the same molecule, the thermodynamic solubility in data set [2] was above 100 µM. Further, the “Solubility (class in words)” value in data set [2] was “Freely”. This molecule also yielded an MEC in data set [3] of 6.79 µM. In addition, in data set [3] (72 h, summary sheet), the “MTT (MEC) Minimum effective concentration” value came out at 6.79 µM. The “functional activity in SIA (result in words)” value in the data set with DAOY cells was “invasion inhibition only at the highest concentration”. Also, the half-life at 1 µM in data set [4] amounted to 3.35 min. For the same molecule, the microsomal CLint at 1 µM in data set [4] was 414 µL/min/mg.

By efflux ratio is commonly meant a quotient of directional permeabilities that is used to spot active efflux. As a reminder, the Papp A→B is how fast a substance crosses the layer from the apical side. What is called pEC50 is the EC50 on a negative log10 scale, so that one unit is a factor of ten. In the case of `COc1ncc(C(C)NC2CC(C)(C)NC(C)(C)C2)cc1Cl` (centres unmarked) [Compound 3.3], the efflux ratio at 120 min, 10 μM is 8.01 in data set [1] (Caco-2) and 8.01 in data set [1] (Caco-2, pH 7.4). The Papp A→B at 120 min, 10 μM amounted to 4.79 ×10⁻⁶ cm/s in data set [1] (setting [14]), 4.79 ×10⁻⁶ cm/s in data set [1] (setting [15]), 4.98 ×10⁻⁶ cm/s in data set [1] (setting [16]) and 4.59 ×10⁻⁶ cm/s in data set [1] (setting [17]). The basolateral-to-apical permeability (Papp B→A) at 120 min, 10 μM came out at 38.3 ×10⁻⁶ cm/s in data set [1] (setting [5]), 38.3 ×10⁻⁶ cm/s in data set [1] (setting [8]), 39.9 ×10⁻⁶ cm/s in data set [1] (setting [9]) and 36.8 ×10⁻⁶ cm/s in data set [1] (setting [10]). In addition, the values for the recovery at 120 min, 10 µM in data set [1] (setting [6]) and in data set [1] (setting [7]) were 73.1% and 104%, respectively. The solubility in data set [2] (read-out: Mean Solubility), in data set [2] (setting [11]), in data set [2] (setting [18]), in data set [2] (setting [12]) and in data set [2] (setting [13]) was above 100 µM throughout. The solubility (thermodynamic) in data set [2] was above 100 µM. Further, the “Solubility (class in words)” value in data set [2] is on record as “Freely”. This molecule also displayed an MEC in data set [3] of 75.8 µM. Moreover, the “MTT (MEC) Minimum effective concentration” value in data set [3] (72 h, summary sheet) is 75.8 µM. Also, the pEC50 in the data set on DAOY cells (Homo sapiens, Daoy, DAOY cells, n = 3 technical replicas, read-out: EC50 for the inhibition of bFGF-induced collagen I invasion) was 4.84. Besides, the half-life at 1 µM in data set [4] was 3.91 min. Besides, in data set [4], the microsomal CLint at 1 µM was determined as 355 µL/min/mg.

Turning to `O=C(O)c1c(Cl)cc(O)c2c1C1C=CCC1C(c1ccc(Cl)cc1)N2` (centres unmarked) [Compound 13], the efflux ratio at 120 min, 10 μM in data set [1] (Caco-2) was determined as 1.5; in data set [1] (Caco-2, pH 7.4), 1.5. In addition, the Papp A→B at 120 min, 10 μM in data set [1] (setting [14]) is 1.94 ×10⁻⁶ cm/s; in data set [1] (setting [15]), 1.94 ×10⁻⁶ cm/s; in data set [1] (setting [16]) it was 1.02 ×10⁻⁶ cm/s; in data set [1] (setting [17]), 2.86 ×10⁻⁶ cm/s. Besides, the apparent permeability from basolateral to apical (Papp B→A) at 120 min, 10 μM is 2.91 ×10⁻⁶ cm/s in data set [1] (setting [5]), 2.91 ×10⁻⁶ cm/s in data set [1] (setting [8]), 2.62 ×10⁻⁶ cm/s in data set [1] (setting [9]) and 3.2 ×10⁻⁶ cm/s in data set [1] (setting [10]). Further, the results for the recovery at 120 min, 10 µM in data set [1] (setting [6]) and in data set [1] (setting [7]) were 86.6% and 85%, respectively. For the same molecule, the solubility in data set [2] (read-out: Mean Solubility), in data set [2] (setting [11]), in data set [2] (setting [18]), in data set [2] (setting [12]) and in data set [2] (setting [13]) was above 100 µM throughout. Further, the thermodynamic solubility in data set [2] was above 100 µM. Moreover, the “Solubility (class in words)” value in data set [2] was “Freely”. Moreover, in data set [3] (72 h, summary sheet), the “MTT (AC50) Conc at which 50% of maximum efficacy is reached” value is listed as “No response”. Besides, the “MTT (MEC) Minimum effective concentration” value in data set [3] (72 h, summary sheet) is “No response”. Also, the “functional activity in SIA (result in words)” value with DAOY cells was “mild but dose-depended reduction”. Further, the half-life at 1 µM in data set [4] came to 83 min. Further, the microsomal CLint at 1 µM in data set [4] came out at 16.7 µL/min/mg.
